What was measured:
[1] = system: antigen-induced arthritis (knee joint); experiment: Antigen-induced arthritis of rats: lateral joint diameter of the right knee joint after intraarticular injection; format: in vivo, rat (female Wistar); conditions: short-term experiment, 0.05 ml intraarticular on day 1
[2] = system: antigen-induced arthritis (knee joint); experiment: as above; format: in vivo, rat (female Wistar); design: Joint diameter (right), Day 0: unit not given here; conditions: for Joint diameter (right), Day 0: day 0, joint diameter before induction of arthritis (baseline); for Joint diameter (right), day 1, difference with respect to day 0 / Joint diameter (right), measured value on day 1: day 1 after induction; for Increase of joint diameter (right) from day 0 to day 1: day 1, increase after induction, before treatment takes effect
Procedure: The animal model employed, antigen-induced arthritis of rats, is a well established animal model which reflects the mechanisms of rheumatoid arthritis (RA) very well. […] Female Wistar rats are employed for this experiment. At an interval of one week, the animals are subcutaneously preimmunized with 0.1 mg of methylalbumin (mBSA) in Freund's complete adjuvant. Two weeks after the second immunization, 0.1 mg of mBSA is injected intraarticularly into the […] knee joint. This injection induces arthritis, which persists for weeks after an acute phase. One day after the induction of the arthritis, the treatment is begun with sulfated hyaluronic acid solution or with high molecular weight hyaluronic acid (MW=1,800 kD), which are injected intraarticularly into the knee joint. The immunization of the animals was effected at an interval of 7 days. In the first immunization, a total of four subcutaneous injections of 0.25 ml each (corresponding to 0.1 mg of methylalbumin in Freund's complete adjuvant) were effected on both sides of the vertebral column at the level of the shoulder blade and above the hip (each at about 1.5 cm distance from the spines of the vertebrae). In the 2nd immunization, 3 depots of 0.3 ml of solution each were introduced; one exactly between the two shoulder blades and two at the level of the abdomen on both sides paravertebrally. The induction of arthritis was effected two weeks after the 2nd immunization by […] injection of 0.05 ml each of a 10 mg/ml solution of mBSA in physiological saline into the respective right knee joint. On the day after induction of arthritis, 0.05 ml each of a formulation containing sulfated HA was injected into the right knee joint of the 20 animals of the experimental group (use of an insulin syringe, thin cannula, 0.35×40 mm). Thereafter, injection was effected once a week (long-term group). The lateral joint diameter of all animals was measured by means of a distance meter (Matatuyo) prior to and 1, 4 and 8 days after the induction of arthritis and then every week until the experiment was completed. The animals were also weighed each time. On the 7th day, 10 animals of the experimental group and 10 animals of the control group were killed. The animals were put down by ether anesthesia, and the sacrifice of the remaining animals was effected 1 week after the last injection of a formulation containing sulfated HA into the right knee joint.

[3] = long-term experiment, intraarticular injection day 1, then once a week
[4] = short-term experiment, 0.05 ml intraarticular on day 1

Substance	Decrease or increase of joint diameter (right) after the injection on day 1, Day 8 [1]	Joint diameters (as a measure of the inflammatory swelling), result in words ([2]; long-term experiment over 3 weeks)	Joint diameter (right), Day 0 ([2]; long-term experiment)	Joint diameter (right), day 1, difference with respect to day 0 ([2]; long-term experiment)	Joint diameter (right), measured value on day 1 ([2]; long-term experiment)	Decrease or increase of joint diameter (right) after the injection on day 1, Day 4 [2, 3]	Decrease or increase of joint diameter (right) after the injection on day 1, Day 8 [2, 3]	Decrease or increase of joint diameter (right) after the injection on day 1, Day 15 [2, 3]	Decrease or increase of joint diameter (right) after the injection on day 1, Day 22 [2, 3]	Decrease or increase of joint diameter (right) after the injection on day 1, Day 29 [2, 3]	Decrease or increase of joint diameter (right) after the injection on day 1, Day 4 [2, 4]	Joint diameter (right), Day 0 ([2]; short-term experiment)	Increase of joint diameter (right) from day 0 to day 1 ([2]; short-term experiment)
sulfated hyaluronic acid [Sulfated HA]	−118	significant decrease of the joint diameters	927.6	+226	1153.9	−4	−127	−203	−212	−231	+20	867.4	+228
hyaluronic acid [HA, reference compound]	−45		926.0	+206	1132.9	+27	−97	−140	−144	−134	+18	913.2	+206

Reference: patent publication US20040053885A1, “Use of hyaluronic acid derivatives for the prevention of inflammatory arthritis” (priority 2000, published 2004)
